The text below walks through data of patent US11076594B2, “Pyrazolone compound or salt thereof, preparation method therefor, herbicide composition and use thereof” (QINGDAO KINGAGROOT CHEMICAL COMPOUNDS CO., LTD., priority 2015, dated 2021).

Common to all, as to format: in vivo
Common to all, as to settings: post-emergence spray at 4-5 leaf stage, 250 g/ha active ingredient with 450 kg/ha water, rated after 3 weeks in greenhouse

One data set deals with wheat. In words: post-emergence stage experiment, crop (Table 1). As to the method:
(§1) The activity level standard of harmful plant destruction (i.e. growth control rate) is as follows: The above described growth control rate is fresh weight control rate. Monocotyledonous and dicotyledonous weed seeds and main crop seeds (i.e. wheat, corn, rice, soybean, cotton, oilseed, millet and sorghum.) were put into a plastic pot loaded with soil. Then covered with 0.5-2 cm soil, the seeds were allowed to grow in good greenhouse environment. The test plants were treated at 4-5 leaf stage 2-3 weeks after sowing. The test compounds of the invention were dissolved with acetone respectively, then added with 80 tween and diluted by certain amount of water to certain concentration. The solution was sprayed to the plants with a sprayer. Then the plants were cultured for 3 weeks in the greenhouse.

The test system of a further data set is foxtail. In words: weed control effect in post-emergence stage (Table 1). Also noted: key: Level 10: completely dead; Level 9: above 95% growth control rate; Level 8: above 90% growth control rate; Level 7: above 80% growth control rate; Level 6: above 70% growth control rate; Level 5: above 60% growth control rate; Level 4: above 50% growth control rate; Level 3: above 20% growth control rate; Level 2: 5%-20% growth control rate; Level 1: below 5% growth control rate. The protocol:
as §1

For another data set, the system named is bidens bipinnata. The data set is described as above. Also noted: key: Level 10: completely dead; Level 9: above 95% growth control rate; Level 8: above 90% growth control rate; Level 7: above 80% growth control rate; Level 6: above 70% growth control rate; Level 5: above 60% growth control rate; Level 4: above 50% growth control rate; Level 3: above 20% growth control rate; Level 2: 5%-20% growth control rate; Level 1: below 5% growth control rate. The protocol: as §1

The next data set has as its system echinochloa. Described as above. Also noted: key: Level 10: completely dead; Level 9: above 95% growth control rate; Level 8: above 90% growth control rate; Level 7: above 80% growth control rate; Level 6: above 70% growth control rate; Level 5: above 60% growth control rate; Level 4: above 50% growth control rate; Level 3: above 20% growth control rate; Level 2: 5%-20% growth control rate; Level 1: below 5% growth control rate. The protocol:
as §1

The next data set relates to Indian mallow. The description is as above. Also noted: key: Level 10: completely dead; Level 9: above 95% growth control rate; Level 8: above 90% growth control rate; Level 7: above 80% growth control rate; Level 6: above 70% growth control rate; Level 5: above 60% growth control rate; Level 4: above 50% growth control rate; Level 3: above 20% growth control rate; Level 2: 5%-20% growth control rate; Level 1: below 5% growth control rate. As to the method:
as §1

The test system of a further data set is crab grass. Described as above. Also noted: key: Level 10: completely dead; Level 9: above 95% growth control rate; Level 8: above 90% growth control rate; Level 7: above 80% growth control rate; Level 6: above 70% growth control rate; Level 5: above 60% growth control rate; Level 4: above 50% growth control rate; Level 3: above 20% growth control rate; Level 2: 5%-20% growth control rate; Level 1: below 5% growth control rate. As to the method:
as §1

The next data set deals with rorippa indica. The data set is described as above. The arrangement: key: Level 10: completely dead; Level 9: above 95% growth control rate; Level 8: above 90% growth control rate; Level 7: above 80% growth control rate; Level 6: above 70% growth control rate; Level 5: above 60% growth control rate; Level 4: above 50% growth control rate; Level 3: above 20% growth control rate; Level 2: 5%-20% growth control rate; Level 1: below 5% growth control rate. As to the method:
as §1

The next data set concerns rice. The data set can be described thus: post-emergence stage experiment, crop (Table 1). The protocol:
as §1

For `COCCCN(C(C)=O)c1c(C(F)(F)F)ccc(C(=O)c2c(C)nn(C)c2O)c1Cl` [Compound 008], the “effect on crop, Wheat (level)” value with wheat was 0. For the same compound, the “weed control effect, Green foxtail (level)” value in the data set on foxtail came out at 10. The “weed control effect, Bidens bipinnata (level)” value with bidens bipinnata is reported as 10. Further, the “weed control effect, Echinochloa (level)” value in the data set on echinochloa amounted to 10. Besides, the “weed control effect, Indian mallow (level)” value in the data set with Indian mallow is given as 3 (Level 3: above 20% growth control rate). Besides, the “weed control effect, Crab grass (level)” value in the data set on crab grass was 3 (Level 3: above 20% growth control rate). The “weed control effect, Rorippa indica (level)” value in the data set with rorippa indica is 0. For the same compound, the “effect on crop, Rice (level)” value with rice was determined as 0.

Take `CCCCN(C(C)=O)c1c(C(F)(F)F)ccc(C(=O)c2c(C)nn(C)c2O)c1Cl` [Compound 006]: the “effect on crop, Wheat (level)” value in the data set on wheat was determined as 0. Besides, the “weed control effect, Green foxtail (level)” value in the data set on foxtail is reported as 3 (Level 3: above 20% growth control rate). Further, the “weed control effect, Bidens bipinnata (level)” value in the data set on bidens bipinnata was 5 (Level 5: above 60% growth control rate). For the same compound, in the data set with echinochloa, the “weed control effect, Echinochloa (level)” value is 10. For the same compound, the “weed control effect, Indian mallow (level)” value with Indian mallow came to 0. Further, the “weed control effect, Crab grass (level)” value in the data set on crab grass was 2 (Level 2: 5%-20% growth control rate). The “weed control effect, Rorippa indica (level)” value in the data set on rorippa indica is recorded as 5 (Level 5: above 60% growth control rate). In addition, in the data set on rice, the “effect on crop, Rice (level)” value was 1 (Level 1: below 5% growth control rate).

`CCOCCCN(C(C)=O)c1c(C(F)(F)F)ccc(C(=O)c2c(C)nn(C)c2O)c1Cl` [Compound 009]: the “effect on crop, Wheat (level)” value with wheat came to 0. Moreover, in the data set with foxtail, the “weed control effect, Green foxtail (level)” value is given as 9 (Level 9: above 95% growth control rate). Moreover, in the data set with bidens bipinnata, the “weed control effect, Bidens bipinnata (level)” value is recorded as 5 (Level 5: above 60% growth control rate). Also, the “weed control effect, Echinochloa (level)” value in the data set on echinochloa is on record as 10. The “weed control effect, Indian mallow (level)” value with Indian mallow is 2 (Level 2: 5%-20% growth control rate). Also, in the data set with crab grass, the “weed control effect, Crab grass (level)” value is 1 (Level 1: below 5% growth control rate). In addition, in the data set with rorippa indica, the “weed control effect, Rorippa indica (level)” value is 0. In addition, the “effect on crop, Rice (level)” value in the data set on rice was 5 (Level 5: above 60% growth control rate).

In the case of `Cc1cnn(-c2c(C(F)(F)F)ccc(C(=O)c3c(C)nn(C)c3O)c2Cl)c1` [Compound 084], the “effect on crop, Wheat (level)” value in the data set with wheat was determined as 0. Besides, the “weed control effect, Green foxtail (level)” value in the data set on foxtail is on record as 10. Moreover, in the data set with bidens bipinnata, the “weed control effect, Bidens bipinnata (level)” value is listed as 10. Also, the “weed control effect, Echinochloa (level)” value with echinochloa is listed as 10. Moreover, the “weed control effect, Indian mallow (level)” value with Indian mallow was 10. For the same compound, the “weed control effect, Crab grass (level)” value with crab grass is reported as 8 (Level 8: above 90% growth control rate). In the data set on rorippa indica, the “weed control effect, Rorippa indica (level)” value is reported as 9 (Level 9: above 95% growth control rate). Besides, the “effect on crop, Rice (level)” value in the data set with rice is 7 (Level 7: above 80% growth control rate).

On to `CC(=O)N(C)c1c(C(F)(F)F)ccc(C(=O)c2c(C)nn(C)c2O)c1Cl` [Compound 004], for which the “effect on crop, Wheat (level)” value in the data set on wheat is 0. Besides, the “weed control effect, Green foxtail (level)” value in the data set with foxtail is 1 (Level 1: below 5% growth control rate). Besides, in the data set with bidens bipinnata, the “weed control effect, Bidens bipinnata (level)” value is recorded as 9 (Level 9: above 95% growth control rate). Also, the “weed control effect, Echinochloa (level)” value in the data set with echinochloa is reported as 4 (Level 4: above 50% growth control rate). Besides, the “weed control effect, Indian mallow (level)” value in the data set with Indian mallow is reported as 9 (Level 9: above 95% growth control rate). The “weed control effect, Crab grass (level)” value in the data set with crab grass is listed as 4 (Level 4: above 50% growth control rate). Moreover, in the data set with rorippa indica, the “weed control effect, Rorippa indica (level)” value is on record as 9 (Level 9: above 95% growth control rate). Besides, the “effect on crop, Rice (level)” value in the data set on rice was 5 (Level 5: above 60% growth control rate).

`Cc1nn(C)c(O)c1C(=O)c1ccc(C(F)(F)F)c(-n2cc(Cl)cn2)c1Cl` [Compound 095]: the “effect on crop, Wheat (level)” value with wheat is reported as 0. Also, the “weed control effect, Green foxtail (level)” value in the data set with foxtail is reported as 1 (Level 1: below 5% growth control rate). Moreover, in the data set on echinochloa, the “weed control effect, Echinochloa (level)” value is recorded as 1 (Level 1: below 5% growth control rate). In the data set on Indian mallow, the “weed control effect, Indian mallow (level)” value came to 0. Moreover, the “weed control effect, Crab grass (level)” value in the data set on crab grass was 1 (Level 1: below 5% growth control rate). Further, the “weed control effect, Rorippa indica (level)” value in the data set with rorippa indica is reported as 0. Moreover, the “effect on crop, Rice (level)” value with rice is 6 (Level 6: above 70% growth control rate).

For the compound `CCCCOCCCN(C(C)=O)c1c(C(F)(F)F)ccc(C(=O)c2c(C)nn(C)c2O)c1Cl` [Compound 011], the “effect on crop, Wheat (level)” value in the data set on wheat was found to be 0. The “weed control effect, Green foxtail (level)” value with foxtail is recorded as 1 (Level 1: below 5% growth control rate). Besides, the “weed control effect, Bidens bipinnata (level)” value in the data set on bidens bipinnata is on record as 5 (Level 5: above 60% growth control rate). Further, the “weed control effect, Echinochloa (level)” value in the data set with echinochloa is 1 (Level 1: below 5% growth control rate). For the same compound, in the data set on Indian mallow, the “weed control effect, Indian mallow (level)” value is 0. In addition, the “weed control effect, Crab grass (level)” value in the data set with crab grass was 1 (Level 1: below 5% growth control rate). Besides, the “weed control effect, Rorippa indica (level)” value with rorippa indica is 0. Further, in the data set on rice, the “effect on crop, Rice (level)” value is 0.

As to `COCCOCCCN(C(C)=O)c1c(C(F)(F)F)ccc(C(=O)c2c(C)nn(C)c2O)c1Cl` [Compound 012], the “effect on crop, Wheat (level)” value in the data set on wheat is 0. Moreover, the “weed control effect, Green foxtail (level)” value in the data set on foxtail is reported as 2 (Level 2: 5%-20% growth control rate). Moreover, the “weed control effect, Bidens bipinnata (level)” value with bidens bipinnata amounted to 10. The “weed control effect, Echinochloa (level)” value with echinochloa is listed as 9 (Level 9: above 95% growth control rate). Also, the “weed control effect, Indian mallow (level)” value with Indian mallow turned out to be 10. In the data set with crab grass, the “weed control effect, Crab grass (level)” value is listed as 1 (Level 1: below 5% growth control rate). For the same compound, the “weed control effect, Rorippa indica (level)” value in the data set on rorippa indica was determined as 0. Moreover, in the data set with rice, the “effect on crop, Rice (level)” value was 0.

Turning to `CC(=O)N(CCCOC(C)C)c1c(C(F)(F)F)ccc(C(=O)c2c(C)nn(C)c2O)c1Cl` [Compound 010], the “effect on crop, Wheat (level)” value in the data set with wheat came to 0. The “weed control effect, Green foxtail (level)” value in the data set with foxtail is listed as 5 (Level 5: above 60% growth control rate). For the same compound, the “weed control effect, Bidens bipinnata (level)” value in the data set on bidens bipinnata is 5 (Level 5: above 60% growth control rate). Besides, the “weed control effect, Echinochloa (level)” value with echinochloa was 6 (Level 6: above 70% growth control rate). Besides, the “weed control effect, Indian mallow (level)” value in the data set with Indian mallow amounted to 0. For the same compound, the “weed control effect, Crab grass (level)” value in the data set with crab grass is recorded as 1 (Level 1: below 5% growth control rate). The “weed control effect, Rorippa indica (level)” value in the data set with rorippa indica came out at 0. Moreover, the “effect on crop, Rice (level)” value with rice was 0.

Consider `Cc1nn(C)c(O)c1C(=O)c1ccc(C(F)(F)F)c(N2CCCC2=O)c1Cl` [Compound 018], for which the “effect on crop, Wheat (level)” value in the data set on wheat is 3 (Level 3: above 20% growth control rate). The “weed control effect, Green foxtail (level)” value in the data set with foxtail stood at 10. Moreover, the “weed control effect, Bidens bipinnata (level)” value in the data set on bidens bipinnata is on record as 10. Also, in the data set on echinochloa, the “weed control effect, Echinochloa (level)” value is 8 (Level 8: above 90% growth control rate). Besides, in the data set with Indian mallow, the “weed control effect, Indian mallow (level)” value is 9 (Level 9: above 95% growth control rate). Besides, the “weed control effect, Crab grass (level)” value in the data set with crab grass amounted to 10. The “weed control effect, Rorippa indica (level)” value with rorippa indica is 10.

Regarding `Cc1nn(C)c(O)c1C(=O)c1ccc(C(F)(F)F)c(-n2ccnc2)c1Cl` [Compound 063], in the data set on wheat, the “effect on crop, Wheat (level)” value stood at 0. Besides, the “weed control effect, Green foxtail (level)” value with foxtail is reported as 1 (Level 1: below 5% growth control rate). Also, the “weed control effect, Bidens bipinnata (level)” value with bidens bipinnata is recorded as 10. Moreover, the “weed control effect, Echinochloa (level)” value with echinochloa is 1 (Level 1: below 5% growth control rate). Moreover, in the data set with Indian mallow, the “weed control effect, Indian mallow (level)” value turned out to be 10. The “weed control effect, Crab grass (level)” value in the data set with crab grass is 0. Moreover, the “weed control effect, Rorippa indica (level)” value with rorippa indica was 9 (Level 9: above 95% growth control rate).
